Assay results taken from ChEMBL document CHEMBL3272017, “Adrenergic sulfonanilides. 4. Centrally active beta-adrenergic agonists” (J Med Chem, 1976).
Active and inactive are the calls of the source. The calls are words filed in the database; no cut-off is given here.

Experiments:
[1] = tested on: Mus musculus; test: Reversal of reserpine-induced ptosis in po dosed mouse; type: functional
[2] = tested on: Mus musculus; test: Inhibition of reserpine-induced ptosis in po dosed mouse; type: functional
[3] = tested on: Mus musculus; test: Analgesic activity in sc dosed mouse assessed as reduction in phenylalanine-induced writhing; type: functional
[4] = tested on: Rattus norvegicus; test: Antagonism of morphine-induced analgesia in rat at 20 mg/kg, sc; type: functional
[5] = organism: Cavia porcellus; test: Agonist activity at beta-adrenoceptor in guinea pig tracheal spiral assessed as potency for 75% relaxation of spontaneous contraction relative to soterenol; type: tissue-based; details: Trachea
[6] = tested on: Rattus norvegicus; test: Antagonism of morphine-induced analgesia in sc dosed rat
[7] = organism: Canis familiaris; test: Anorexiant activity in dog by free feeding method relative to d-amphetamine; type: functional, Canis lupus familiaris
[8] = organism: Rattus norvegicus; test: Anorexiant activity in rat by free feeding method relative to d-amphetamine; type: functional
[9] = Blockade of alpha-adrenoceptor in rat seminal vesicle relative to phentolamine; type: tissue-based
[10] = tested on: Mus musculus; test: Inhibition of reserpine-induced ptosis in po dosed mouse at 25 mg/kg, po; type: functional, organism-based; set-up: dose 25 mg/kg
[11] = Activity at alpha-adrenoceptor in rat seminal vesicle assessed as potency for producing 50% of that of l-epinephrine-induced contraction relative to soterenol; type: tissue-based
[12] = organism: Rattus norvegicus; details: Tail
[13] = tested on: Rattus norvegicus; test: Analgesic activity in sc dosed rat by tail flick test; type: functional
[14] = tested on: Brain; test: Drug uptake in Sprague-Dawley rat whole brain at 0.2 mg/kg, ip after 30 mins; type: ADME, organism-based; set-up: dose 0.2 mg/kg, route intraperitoneal; details: in vivo, 0.5 h
[15] = tested on: Hypothalamus; test: Drug uptake in Sprague-Dawley rat hypothalamus at 0.3 mg/kg, ip after 30 mins; type: ADME, organism-based; set-up: dose 0.3 mg/kg, route intraperitoneal; details: in vivo, 0.5 h
[16] = tested on: Hypothalamus; test: Drug uptake in Sprague-Dawley rat hypothalamus at 0.2 mg/kg, ip after 30 mins; type: ADME, organism-based; set-up: dose 0.2 mg/kg, route intraperitoneal; details: in vivo, 0.5 h
[17] = organism: Cavia porcellus; test: Blockade of beta-adrenoceptor in guinea pig tracheal spiral relative to sotalol; type: tissue-based; details: Trachea
[18] = tested on: Rattus norvegicus; test: Effect on cAMP level in Sprague-Dawley rat heart at 0.3 mg/kg, sc after 30 mins; type: functional, organism-based; set-up: dose 0.3 mg/kg
[19] = tested on: Rattus norvegicus; test: Induction of cAMP level in Sprague-Dawley rat hypothalamus at 0.3 mg/kg, sc after 30 mins; type: functional, organism-based; set-up: dose 0.3 mg/kg
[20] = tested on: Rattus norvegicus; test: Effect on cAMP level in Sprague-Dawley rat striatum at 0.3 mg/kg, sc after 30 mins; type: functional, organism-based; set-up: dose 0.3 mg/kg
[21] = tested on: Rattus norvegicus; test: Induction of cAMP level in Sprague-Dawley rat hypothalamus at 0.3 mg/kg, sc cotreated with 15 mg/kg, sc morphine 30 mins before sacrifice; type: functional, organism-based
[22] = tested on: Rattus norvegicus; test: Effect on cAMP level in Sprague-Dawley rat cortex at 0.3 mg/kg, sc after 30 mins; type: functional, organism-based; set-up: dose 0.3 mg/kg
[23] = tested on: Rattus norvegicus; test: Effect on cAMP level in Sprague-Dawley rat liver at 0.3 mg/kg, sc after 30 mins; type: functional, organism-based; set-up: dose 0.3 mg/kg
[24] = tested on: Rattus norvegicus; test: Antagonism of morphine-induced analgesia in rat at 1.2 mg/kg, sc; type: functional, organism-based; set-up: dose 1.2 mg/kg
[25] = Mus musculus, po, read-out: ED50
[26] = Mus musculus, sc, read-out: ED50

Structure (SMILES): CCOC(CNC1CC1)c1ccc(O)c(NS(C)(=O)=O)c1.Cl (stereo unspecified)
- ED50 [1, 25]: 9.6 mg/kg
- ED50 [2, 25]: 35 mg/kg
- ED50 [3, 26]: > 6 mg/kg
- Activity [4]: inactive

Structure (SMILES): CC(C)(Cc1ccccc1)NCCc1ccc(O)c(NS(C)(=O)=O)c1
- fold change (FC) [5]: 0.31
- Activity [4]: inactive

Structure (SMILES): CC1(NCC(O)c2ccc(O)c(NS(C)(=O)=O)c2)CC1.Cl (stereo unspecified)
- ED50 [1, 25]: 1.1 mg/kg
- fold change (FC) [5]: 2.33
- ED50 [2, 25]: 0.52 mg/kg
- ED50 [6]: 1 mg/kg

Structure (SMILES): C[C@H](NC1CC1)[C@H](O)c1ccc(O)c(NS(C)(=O)=O)c1.Cl (relative stereo)
- ED50 [1, 25]: 0.76 mg/kg
- fold change (FC) [5]: 0.11
- ED50 [2, 25]: 0.51 mg/kg
- Activity [4]: inactive

Structure (SMILES): CC(C)(Cc1ccccc1)NCC(O)c1ccc(O)c(NS(C)(=O)=O)c1.Cl (stereo unspecified) [ZINTEROL HYDROCHLORIDE]
- fold change (FC) [7]: 11
- fold change (FC) [5]: 7.9
- fold change (FC) [8]: 11
- fold change (FC) [9]: 0.1
- inhibition [10]: inactive
- ED50 [6]: 18.8 mg/kg
- fold change (FC) [11]: 0
- ED50 [12]: inactive

Structure (SMILES): CC(C)NCC(O)c1ccc(O)c(NS(C)(=O)=O)c1 (stereo unspecified) [SOTERENOL]
- ED50 [1, 25]: 16.5 mg/kg
- ED50 [2, 25]: 7.6 mg/kg
- ED50 [3, 26]: > 40 mg/kg

Structure (SMILES): CS(=O)(=O)Nc1cc(C(O)CNC2CC2)ccc1O.Cl (stereo in doubt; 44)
- fold change (FC) [7]: 22
- ED50 [1, 25]: 0.255 mg/kg
- ED50 [13]: 5 mg/kg
- ED50 [2]: 0.265 mg/kg
- fold change (FC) [8]: 22
- ED50 [3]: 0.56 mg/kg
- ED50 [6]: 0.275 mg/kg
- fold change (FC) [11]: 68.8

Structure (SMILES): CC(C)NCC(O)c1ccc(O)c(NS(C)(=O)=O)c1.Cl (stereo unspecified) [SOTERENOL HYDROCHLORIDE]
- Drug uptake [14]: Not Active
- Drug uptake [15]: Active
- Drug uptake [16]: Not Active

Structure (SMILES): CS(=O)(=O)Nc1cc(C(=O)CNC2CC2)ccc1O.Cl
- ED50 [3, 26]: > 6 mg/kg
- Activity [4]: inactive

Structure (SMILES): C=CCN1CC[C@]23c4c5ccc(O)c4O[C@H]2[C@@H](O)C=C[C@H]3[C@H]1C5.Cl [NALORPHINE HYDROCHLORIDE]
- ED50 [3, 26]: 2.5 mg/kg
- ED50 [6]: 0.37 mg/kg
- ED50 [12]: inactive

Structure (SMILES): Cc1cc(C(O)CNC2CC2)cc(NS(C)(=O)=O)c1O.Cl (stereo unspecified)
- ED50 [1, 25]: 0.67 mg/kg
- fold change (FC) [5]: 5.8e-05
- ED50 [2, 25]: 0.15 mg/kg
- fold change (FC) [11]: 8.7
- Activity ([4]; route subcutaneous): 20.8%

Structure (SMILES): CS(=O)(=O)Nc1cc(C(O)CNC2CC2)ccc1O (single isomer, unassigned; (-))
- fold change (FC) [5]: 1.9

Structure (SMILES): CC[C@H](NC1CC1)[C@H](O)c1ccc(O)c(NS(C)(=O)=O)c1.Cl (relative stereo)
- ED50 [1, 25]: 8.9 mg/kg
- fold change (FC) [5]: 0.23
- ED50 [2, 25]: 20 mg/kg
- fold change (FC) [9]: 0.000045
- ED50 [3, 26]: > 6 mg/kg
- fold change (FC) [11]: 0
- Activity [4]: inactive

Structure (SMILES): CCN(CC(O)c1ccc(O)c(NS(C)(=O)=O)c1)C1CC1.Cl (stereo unspecified)
- ED50 [3, 26]: > 6 mg/kg
- Activity [4]: inactive

Structure (SMILES): CC(N)Cc1ccccc1.O=S(=O)(O)O (racemic) [AMPHETAMINE SULFATE]
- ED50 [1, 25]: 1.94 mg/kg
- ED50 [2, 25]: 0.67 mg/kg

Structure (SMILES): Cl.Oc1ccc(CCNC2CC2)cc1O
- ED50 [3, 26]: > 6 mg/kg
- Activity ([4]; route subcutaneous): 32.8%

Structure (SMILES): CS(=O)(=O)Nc1cc(O)cc(C(O)CNC2CC2)c1.Cl (stereo unspecified)
- Activity [5]: inactive
- Activity [11]: Not Active

Structure (SMILES): CS(=O)(=O)Nc1ccc(C(O)CNC2CC2)cc1 (stereo unspecified)
- Activity [4]: inactive

Structure (SMILES): CS(=O)(=O)Nc1cc(C(O)CNC2CCC2)ccc1O.Cl (stereo unspecified)
- ED50 [1, 25]: 24 mg/kg
- fold change (FC) [5]: 0.36
- ED50 [2, 25]: 20 mg/kg
- ED50 [3, 26]: > 6 mg/kg

Structure (SMILES): CS(=O)(=O)Nc1cc(C(O)CNC2CC2)ccc1O.Cl (single isomer, unassigned; (-))
- ED50 [1]: 0.23 mg/kg
- ED50 [2]: 0.175 mg/kg
- ED50 [3]: 0.66 mg/kg
- fold change (FC) [11]: 108

Structure (SMILES): CN1CC[C@]23c4c5ccc(O)c4O[C@H]2[C@@H](O)C=C[C@H]3[C@H]1C5.CN1CC[C@]23c4c5ccc(O)c4O[C@H]2[C@@H](O)C=C[C@H]3[C@H]1C5.O=S(=O)(O)O
- ED50 [13]: 1.9 mg/kg
- ED50 [3, 26]: 0.62 mg/kg

Structure (SMILES): CS(=O)(=O)Nc1cc(CCNC2CC2)ccc1O.Cl
- fold change (FC) [7]: 5.5
- ED50 [1, 25]: 1.5 mg/kg
- ED50 [13]: 2.77 mg/kg
- fold change (FC) [5]: 0.002
- ED50 [2, 25]: 3.6 mg/kg
- fold change (FC) [8]: 5.5
- ED50 [3, 26]: 0.62 mg/kg
- ED50 [6]: 0.21 mg/kg

Structure (SMILES): CCC(Cc1ccc(O)c(NS(C)(=O)=O)c1)NC1CC1.Cl (stereo unspecified)
- fold change (FC) [5]: 0.0013
- ED50 [3, 26]: > 6 mg/kg

Structure (SMILES): CS(=O)(=O)Nc1cccc(C(O)CNC2CC2)c1.Cl (stereo unspecified)
- ED50 [1, 25]: 0.8 mg/kg
- fold change (FC) [17]: 0.05
- fold change (FC) [5]: < 0.01
- ED50 [2, 25]: 1 mg/kg
- ED50 [3, 26]: > 6 mg/kg

Structure (SMILES): Oc1ccc(C(O)CNC2CC2)cc1 (stereo unspecified)
- fold change (FC) [5]: 0.0136
- ED50 [3, 26]: 5.6 mg/kg
- ED50 [12]: inactive
- Activity [4]: inactive

Structure (SMILES): CS(=O)(=O)Nc1cc(C(O)CNC2CC2)cc(Cl)c1O.Cl (stereo unspecified)
- ED50 [1, 25]: 0.082 mg/kg
- fold change (FC) [5]: 0.048
- ED50 [2, 25]: 0.072 mg/kg
- ED50 [3, 26]: > 6 mg/kg
- fold change (FC) [11]: 4.9
- Activity ([4]; route subcutaneous): 20.8%

Structure (SMILES): Oc1ccc(C(O)CNC2CC2)cc1Cl (stereo unspecified)
- ED50 [3, 26]: > 6 mg/kg
- Activity ([4]; route subcutaneous): 14.5%

Structure (SMILES): CS(=O)(=O)Nc1cc(C(O)CNC2CC2)ccc1O (stereo in doubt; 44)
- Activity [18]: inactive
- Activity [19]: Active
- Activity [20]: inactive
- fold change (FC) [5]: 0.7
- Activity [21]: Active
- Activity [22]: inactive
- Activity [23]: inactive

Structure (SMILES): CN(C)CCCN1c2ccccc2CCc2ccccc21.Cl [IMIPRAMINE HYDROCHLORIDE]
- ED50 [1, 25]: > 320 mg/kg
- ED50 [2, 25]: 4.97 mg/kg

Structure (SMILES): CS(=O)(=O)Nc1cc(C(O)CNC2CC2)ccc1O.Cl (stereo in doubt; 46)
- ED50 [2]: 31.3 mg/kg
- ED50 [3]: >50 mg/kg
- fold change (FC) [11]: 0

Structure (SMILES): CS(=O)(=O)Nc1cc(C(O)CNC2(Cc3ccccc3)CC2)ccc1O.Cl (stereo unspecified)
- ED50 [1, 25]: 0.32 mg/kg
- fold change (FC) [5]: 0.14
- ED50 [2, 25]: 0.15 mg/kg
- ED50 [6]: 4.7 mg/kg

Structure (SMILES): CS(=O)(=O)Nc1cc(C(O)CNC2CC2)ccc1O.Cl (stereo unspecified)
- Drug uptake [14]: Not Active
- Drug uptake [15]: Active
- Drug uptake [16]: Not Active

Structure (SMILES): CC(C)NCC(O)c1ccc(O)c(NS(C)(=O)=O)c1 (stereo unspecified)
- ED50 [12]: inactive
- Activity [4]: inactive

Structure (SMILES): CS(=O)(=O)Nc1cc(C(O)CNC2CC2)ccc1O (stereo in doubt; 46)
- fold change (FC) [5]: 0.0035
- Activity [24]: inactive

Structure (SMILES): C[C@H](NC1CC1)[C@H](O)c1cccc(NS(C)(=O)=O)c1.Cl (relative stereo)
- fold change (FC) [17]: 0.1
- ED50 [3, 26]: > 6 mg/kg

Structure (SMILES): CN(C)S(=O)(=O)Nc1cc(C(O)CNC2CC2)ccc1O.Cl (stereo unspecified)
- ED50 [1, 25]: 1.3 mg/kg
- ED50 [13]: 50 mg/kg
- fold change (FC) [5]: 0.028
- ED50 [2, 25]: 0.94 mg/kg
- ED50 [3, 26]: 1.7 mg/kg
- ED50 [6]: 0.72 mg/kg
